Three compounds from paper PMC2365111, “Cytotoxicity of Poly(Phenolic)Sulfonates and Their Sodium Salts in L1210 Lymphoid Leukemia Cells” (Metal-Based Drugs, 1998) can be followed below.

Test [1] deals with L1210 d[NTP] pool levels. The test is described as follows: Deoxyribonucleoside triphosphate pool levels. Type of test: cell-based, mouse. The settings on record: 100 μM, 60 min, N=6. An excerpt: (§1) CYTOTOXlCITY OF POLY(PHENOLIC)SULFONATES AND THEIR SODIUM SALTS IN L1210 LYMPHOID LEUKEMIA CELLS Fei Wang, Amy E. Warren, Cheryl R. Barnes and Iris H. Hall* Division of Medicinal Chemistry and Natural Products University of North Carolina Chapel Hill, N.C. […] Because ofthese properties it was surmised that these poly(phenolic)sulfonated compounds may have antineoplastic activity. METHODS Source of Compounds Test compounds were supplied by GeneLabs, Inc. [Redwood City, CA [Table 1]. Radioisotopes were obtained from New England Nuclear [Dupont, Boston, MA]. Substrates and co-factors were purchased om Sigma Chemical Co., [St Louis, MO]. Pentosan sulfate and other antineoplastic standards were obtained from Sigma Chemical Co. Tumor lines were obtained from American Type Culture Collection [Rockville, MD]. 147 Vol. 5, No. 3, 1998 Cytotoxicity ofSodium Poly(Phenolic)Sulfonates in L1210 Lymphoid Leukemia Cells Table 1 Structures of Poly(phenolic)sulfonate Compounds O2R" n Compound R' R" n MW # G1-2041 H OH 8 1489.46 G1-2029 H OH 6 1117.09 G1-2030 H OH 4 744.73 GI-2021 CH3 ONa 8 1777.5 G1-2057 CH3 ONa 4 888.75 GI-2158 CH3 ONa 6 1333.13 GI-2063 OCH3 ONa 8 2001.65 G1-2042 OAc ONa 8 2017.73 Cytotoxicity Poly(phenolic)sulfonates were tested for cytotoxic activity by homogenizing drug in 0.05% Tween 80/H20 to give a mg/ml stock concentration. These solutions were sterilized by passing them through an acrodisc ([…]). The following cell lines were maintained by literature techniques: murine L1210 lymphoid leukemia, P-388 lymphocytic leukemia, rat UMR 106 osteosarcoma, human Tmolt3 acute lymphoblastic T cell leukemia, HUT-8 lymphoma, HeLa-S suspended cervical carcinoma, HeLa solid cervical carcinoma, KB epidermoid nasopharynx, A431 epidermoid carcinoma, colorectal adenocarcinoma SW480, HCT-8 ileocecal adenocarcinoma, lung bronchogenic MB-9812, A549 lung carcinoma, and glioma HS683. Geran et al.'s protocol was used to assess the cytotoxicity of the compounds and standards in each cell line. Cell numbers were determined by the trypan blue exclusion technique. Solid tumor cytotoxicity was determined by Leibovitz et al. 's method utilizing crystal violeeOH and read at 562 nm (Molecular Devices). Values for cytotoxicity were expressed as EDs0 g/ml, i.e. the concentration ofthe compound inhibiting 50% ofcell growth. A value of less than 4 µg/ml was required for significant activity ofgrowth inhibition. Incorporation Studies Incorporation of labeled precursors into 3H-DNA, 3H -RNA and 3H -protein for 10 L1210 cells was obtained. The concentration response for inhibition of DNA, RNA and protein synthesis of the compounds at 25, 50 and 100 l.tM was determined for 60 min incubations. Incorporation of 14C -glycine (53.0 mCi/mmol) into purines was obtained by the method of Cadman et al.[12]. Incorporation of 4C- formate (53.0 mCi/mmol) into pyrimidines was determined by the method of Christopherson et al.[13]. Enzyme Assays Inhibition of various enzyme activities was performed by first preparing the appropriate L1210 cell homogenates or subcellular fractions, then adding the drug to be tested during the enzyme assay. For the concentration response studies, inhibition of enzyme activity was determined at 25, 50 and 100 l.tM of compounds G1-2021, G1-2029, GI-2041 and G1-2063 after 60 min incubations. DNA polymerase Ot activity was determined in cytoplasmic extracts isolated by Eichler et aL's method. The DNA polymerase assay was described by Sedwick et al.[15] using 3H-TTP. Messenger-, ribosomal- and transfer-RNA polymerase enzymes were isolated with different concentrations of ammonium sulfate; individual RNA polymerase activities were determined using 3H -UTP 16,17]. Ribonucleoside reductase activity was measured using 4C -CDP with dithioerythritol. The deoxyribonucleotides 4C -dCDP were separated from the ribonucleotides by TLC on PEI plates. […]

The target in test [2] is T1, Aspartate transcarbamylase (Mus musculus, UniProt B2RQC6).
T1 construct: preparing the appropriate L1210 cell homogenates or subcellular fractions; endogenous in cells; host or cells: L1210 murine lymphoid leukemia cells, homogenate or subcellular fraction
Nature of the test: Aspartate transcarbamylase activity, L1210. Type of test: biochemical. The settings on record: 60 min, N=6.
Source text: as §1

Test [3] relates to Thymidine diphosphate kinase. Nature of the test: TDP kinase activity, L1210. Type of test: biochemical, mouse. The settings on record: 60 min, N=6.
Source text: as §1

The target in test [4] is T2, Thymidylate synthetase (Mus musculus, UniProt P07607).
T2 construct: preparing the appropriate L1210 cell homogenates or subcellular fractions; endogenous in cells; host or cells: L1210 murine lymphoid leukemia cells, homogenate or subcellular fraction
The test is described as follows: Thymidylate synthetase activity, L1210. The settings on record: 60 min, N=6. Type of test: biochemical.
Source text: as §1

Test [5] concerns L1210 de novo purine synthesis. The test is described as follows: 14C-glycine incorporation into purines. Type of test: cell-based, mouse. The settings on record: 60 min, N=6.
Source text: as §1

T1 sequence (B2RQC6 whole entry): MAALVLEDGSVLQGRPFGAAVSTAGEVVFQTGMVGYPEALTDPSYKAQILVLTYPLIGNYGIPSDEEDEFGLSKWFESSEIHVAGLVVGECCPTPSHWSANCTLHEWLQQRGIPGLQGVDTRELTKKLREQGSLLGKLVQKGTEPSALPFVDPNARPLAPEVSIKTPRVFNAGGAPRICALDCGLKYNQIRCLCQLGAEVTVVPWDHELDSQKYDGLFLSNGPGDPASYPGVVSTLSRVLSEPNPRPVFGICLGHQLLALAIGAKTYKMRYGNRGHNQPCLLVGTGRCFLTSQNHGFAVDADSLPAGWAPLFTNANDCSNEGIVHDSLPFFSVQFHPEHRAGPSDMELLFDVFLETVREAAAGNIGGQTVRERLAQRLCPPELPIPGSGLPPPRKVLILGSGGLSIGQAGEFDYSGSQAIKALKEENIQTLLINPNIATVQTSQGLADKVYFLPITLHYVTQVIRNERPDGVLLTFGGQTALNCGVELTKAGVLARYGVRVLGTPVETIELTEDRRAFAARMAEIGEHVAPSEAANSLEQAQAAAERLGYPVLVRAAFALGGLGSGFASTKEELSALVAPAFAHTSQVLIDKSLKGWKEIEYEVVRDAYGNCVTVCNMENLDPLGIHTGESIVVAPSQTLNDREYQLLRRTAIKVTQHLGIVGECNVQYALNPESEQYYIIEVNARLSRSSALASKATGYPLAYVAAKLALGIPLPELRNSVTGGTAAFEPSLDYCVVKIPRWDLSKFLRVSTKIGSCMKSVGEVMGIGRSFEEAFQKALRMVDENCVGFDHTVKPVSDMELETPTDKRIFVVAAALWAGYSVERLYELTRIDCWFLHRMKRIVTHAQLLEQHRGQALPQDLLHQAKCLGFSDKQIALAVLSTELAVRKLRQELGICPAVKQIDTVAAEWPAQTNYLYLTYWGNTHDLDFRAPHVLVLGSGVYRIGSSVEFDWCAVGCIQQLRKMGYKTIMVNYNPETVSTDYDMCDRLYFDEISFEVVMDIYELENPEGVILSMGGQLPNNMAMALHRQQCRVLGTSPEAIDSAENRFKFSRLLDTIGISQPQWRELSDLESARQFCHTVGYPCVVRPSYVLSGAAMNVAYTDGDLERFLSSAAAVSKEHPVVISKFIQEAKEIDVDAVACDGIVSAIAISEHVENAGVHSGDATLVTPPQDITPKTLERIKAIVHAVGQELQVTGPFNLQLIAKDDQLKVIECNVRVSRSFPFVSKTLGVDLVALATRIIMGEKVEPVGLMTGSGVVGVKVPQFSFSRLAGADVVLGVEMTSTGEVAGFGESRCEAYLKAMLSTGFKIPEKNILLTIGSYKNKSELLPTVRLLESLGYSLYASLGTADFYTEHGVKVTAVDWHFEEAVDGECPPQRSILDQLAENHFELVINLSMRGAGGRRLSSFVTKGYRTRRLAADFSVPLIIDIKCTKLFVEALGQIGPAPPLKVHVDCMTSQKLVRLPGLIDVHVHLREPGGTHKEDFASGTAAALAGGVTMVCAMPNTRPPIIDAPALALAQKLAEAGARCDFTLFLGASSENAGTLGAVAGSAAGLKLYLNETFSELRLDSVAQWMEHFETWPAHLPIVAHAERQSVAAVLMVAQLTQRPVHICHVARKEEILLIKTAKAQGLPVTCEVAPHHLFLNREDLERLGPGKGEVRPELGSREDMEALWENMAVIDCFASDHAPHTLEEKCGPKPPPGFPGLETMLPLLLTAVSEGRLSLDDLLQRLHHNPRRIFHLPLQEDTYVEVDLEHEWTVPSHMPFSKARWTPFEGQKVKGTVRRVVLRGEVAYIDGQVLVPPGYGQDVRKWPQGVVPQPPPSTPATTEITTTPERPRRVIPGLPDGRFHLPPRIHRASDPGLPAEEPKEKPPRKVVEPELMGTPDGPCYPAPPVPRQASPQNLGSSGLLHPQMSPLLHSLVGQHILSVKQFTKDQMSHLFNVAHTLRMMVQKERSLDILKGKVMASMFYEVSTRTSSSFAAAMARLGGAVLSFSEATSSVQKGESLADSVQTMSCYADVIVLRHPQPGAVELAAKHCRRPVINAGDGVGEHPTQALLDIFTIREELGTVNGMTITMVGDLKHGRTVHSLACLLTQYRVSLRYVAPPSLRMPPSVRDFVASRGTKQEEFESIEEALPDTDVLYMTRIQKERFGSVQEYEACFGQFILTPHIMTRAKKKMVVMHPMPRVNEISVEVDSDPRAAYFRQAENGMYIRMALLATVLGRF
T2 sequence (P07607 whole entry): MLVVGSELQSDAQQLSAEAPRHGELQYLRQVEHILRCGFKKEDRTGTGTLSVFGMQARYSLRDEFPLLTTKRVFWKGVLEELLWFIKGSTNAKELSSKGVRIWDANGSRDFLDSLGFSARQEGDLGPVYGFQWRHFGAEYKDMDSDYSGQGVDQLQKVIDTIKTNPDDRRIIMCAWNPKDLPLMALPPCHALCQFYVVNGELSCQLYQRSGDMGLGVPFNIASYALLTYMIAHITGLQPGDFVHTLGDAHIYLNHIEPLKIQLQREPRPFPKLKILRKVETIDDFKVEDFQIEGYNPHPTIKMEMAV

Regarding `O=S(=O)(O)c1cc2c(O)c(c1)Cc1cc(S(=O)(=O)O)cc(c1O)Cc1cc(S(=O)(=O)O)cc(c1O)Cc1cc(S(=O)(=O)O)cc(c1O)Cc1cc(S(=O)(=O)O)cc(c1O)Cc1cc(S(=O)(=O)O)cc(c1O)C2` [GI-2029], the “d(ATP)” value in test [1] is 68+5% of Control. Also, the “d(CTP)” value in test [1] is listed as 96+ 5% of Control. Moreover, in test [1], the “d(TTP)” value is given as 98+5% of Control. Besides, the Aspartate transcarbamylase in test [2] (25 μM) was 100+5% of Control; in test [2] (50 μM) it was 100+5% of Control; in test [2] (100 μM), 98+6% of Control. Also, the Thymidine diphosphate kinase was 57+3% of Control in test [3] (25 μM) and 27+3% of Control in test [3] (100 μM). The figures for the Thymidylate synthetase in test [4] (25 μM) and in test [4] (50 μM) were 92+5% of Control and 89+6% of Control, respectively. Further, the “Purine de novo synthesis” value in test [5] (25 μM) was 130+6% of Control; in test [5] (50 μM), 97+6% of Control.

In the case of `COc1c2cc(S(=O)(=O)[O-])cc1Cc1cc(S(=O)(=O)[O-])cc(c1OC)Cc1cc(S(=O)(=O)[O-])cc(c1OC)Cc1cc(S(=O)(=O)[O-])cc(c1OC)Cc1cc(S(=O)(=O)[O-])cc(c1OC)Cc1cc(S(=O)(=O)[O-])cc(c1OC)Cc1cc(S(=O)(=O)[O-])cc(c1OC)Cc1cc(S(=O)(=O)[O-])cc(c1OC)C2.[Na+].[Na+].[Na+].[Na+].[Na+].[Na+].[Na+].[Na+]` [GI-2021], the “d(ATP)” value in test [1] is 65+ 4% of Control. In test [1], the “d(CTP)” value was 67+5% of Control. In test [1], the “d(GTP)” value is 79+4% of Control. Besides, in test [1], the “d(TTP)” value is recorded as 88+6% of Control. Besides, the Aspartate transcarbamylase in test [2] (25 μM) was 101+6% of Control; in test [2] (50 μM) it was 100+5% of Control; in test [2] (100 μM), 98+4% of Control. The figures for the Thymidine diphosphate kinase in test [3] (50 μM) and in test [3] (100 μM) were 32+3% of Control and 26+3% of Control, respectively. Also, the figures for the Thymidylate synthetase in test [4] (25 μM), in test [4] (50 μM) and in test [4] (100 μM) were 97+6% of Control, 88+5% of Control and 82+4% of Control, respectively. Besides, the “Purine de novo synthesis” value in test [5] (25 μM) is recorded as 121+6% of Control; in test [5] (50 μM), 118+4% of Control; in test [5] (100 μM) it was 74+6% of Control.

Take `O=S(=O)(O)c1cc2c(O)c(c1)Cc1cc(S(=O)(=O)O)cc(c1O)Cc1cc(S(=O)(=O)O)cc(c1O)Cc1cc(S(=O)(=O)O)cc(c1O)Cc1cc(S(=O)(=O)O)cc(c1O)Cc1cc(S(=O)(=O)O)cc(c1O)Cc1cc(S(=O)(=O)O)cc(c1O)Cc1cc(S(=O)(=O)O)cc(c1O)C2` [GI-2041]: the “d(ATP)” value in test [1] is 62+ 5% of Control. The “d(GTP)” value in test [1] is 74+5% of Control. In addition, the “d(TTP)” value in test [1] is reported as 89+6% of Control. Further, the results for the Aspartate transcarbamylase in test [2] (25 μM) and in test [2] (100 μM) were 106+5% of Control and 94+5% of Control, respectively. The figures for the Thymidine diphosphate kinase in test [3] (25 μM), in test [3] (50 μM) and in test [3] (100 μM) were 89+5% of Control, 64+5% of Control and 54+3% of Control, respectively. Further, the Thymidylate synthetase in test [4] (25 μM) is 105+5% of Control; in test [4] (50 μM), 103+6% of Control; in test [4] (100 μM) it was 92+5% of Control. The “Purine de novo synthesis” value in test [5] (25 μM) was 85+5% of Control; in test [5] (100 μM) it was 54+3% of Control.
